Test results published in patent US9572315B2, “ALS inhibitor herbicide tolerant B. napus mutants” (BAYER INTELLECTUAL PROPERTY GMBH, priority 2011, dated 2017).

Tests used:
[1] = test system: B. napus mutant FM 202 (ALS I A190V, ALS III W556L); experiment: ALS-inhibitor herbicide injury on B. napus, greenhouse spray trial, visual scoring; type: in vivo, Brassica napus
Method: (§1) The individual components herbicide and surfactant with regard to type and application rate as stated in table I were added with stirring to a water application rate of 300 l/ha so that a homogeneous spray mixture was formed.
(§2) Seeds of B. napus were sown in a sandy loam soil and placed in a climate chamber in a greenhouse under good growth conditions (16 h light, temperature day 14° C., night: 8° C.). The plants were grown up to growth stage of BBCH 12 to BBCH 13. […] After the treatment, the plants were returned to the climate chamber.
(§3) Visual scoring was carried out using a percentage scale of 0%=no damage to 100%=all plants dead.

[2] = test system: B. napus wild type line SR002201 (NCIMB 41813); experiment: as above; type: in vivo, Brassica napus
Method: as §1, §2, §3

[3] = test system: plants regenerated from the clone FM202; experiment: Growth of regenerated plants in presence of herbicide; type: cell-based, Brassica napus; settings: high concentration of ALS inhibitor (selection at 10^−4 M)
[4] = test system: B. napus plants of the present invention; experiment: Sensitivity to ALS inhibitor herbicide compared to wild type; parameters: species or system Brassica napus; settings: B. napus plant described in the Examples vs wild type
[5] = 30 g a.i./ha, spray at BBCH 12-13 with Mero 1 l/ha, visual scoring 14 days after application, 0%=no damage, 100%=all plants dead
[6] = 20 g a.i./ha, spray at BBCH 12-13 with Mero 1 l/ha, visual scoring 14 days after application, 0%=no damage, 100%=all plants dead
[7] = Brassica napus, 336 h, 30 g a.i./ha, spray at BBCH 12-13 with Mero 1 l/ha, visual scoring 14 days after application, 0%=no damage, 100%=all plants dead
[8] = Brassica napus, 336 h, 7 g a.i./ha, spray at BBCH 12-13 with Mero 1 l/ha, visual scoring 14 days after application, 0%=no damage, 100%=all plants dead
[9] = 15 g a.i./ha, spray at BBCH 12-13 with Mero 1 l/ha, visual scoring 14 days after application, 0%=no damage, 100%=all plants dead
[10] = Brassica napus, 336 h, 35 g a.i./ha, spray at BBCH 12-13 with Mero 1 l/ha, visual scoring 14 days after application, 0%=no damage, 100%=all plants dead

For `COc1nc(C)nc(N(C)C(=O)NS(=O)(=O)c2ccccc2C(=O)O)n1` [Tribenuron], the “Herbicide injury on B. napus FM 202” value [1, 5] was 3% and the “Herbicide injury on B. napus SR002201” value [2, 5] was 95%.

For `COc1nn(C(=O)NS(=O)(=O)c2c(C(=O)O)csc2C)c(=O)n1C` [Thiencarbazone], the “Herbicide injury on B. napus FM 202” value [1, 6] was 0% and the “Herbicide injury on B. napus SR002201” value [2, 6] was 90%.

With `Cc1cccc(C(=O)O)c1S(=O)(=O)NC(=O)Nc1nc(OCC(F)(F)F)nc(N(C)C)n1` [Triflusulfuron] the “Herbicide injury on B. napus FM 202” value [1, 6] was 0% and the “Herbicide injury on B. napus SR002201” value [2, 6] was 65%.

Work on `COc1cc(OC)nc(NC(=O)NS(=O)(=O)N(C)S(C)(=O)=O)n1` [Amidosulfuron] yielded a pest or weed control at 30 g/ha [1, 7] of 0% and a pest or weed control at 30 g/ha [2, 7] of 93%.

In the case of `COc1cc(OC)nc(NC(=O)[N-]S(=O)(=O)c2ncccc2C2=NOCCO2)n1.[Na+]` [Compound of formula (I)], the “growth of plants regenerated from clone FM202 in presence of the ALS inhibitor” value [3] is reported as “able to grow”.

For `COc1nc(C)nc(NC(=O)NS(=O)(=O)c2cc(I)ccc2C(=O)O)n1` [Iodosulfuron], the pest or weed control at 7 g/ha [1, 8] was 0% and the pest or weed control at 7 g/ha [2, 8] was 95%.

Compound `COc1nc(C)nc(=NC(=O)NS(=O)(=O)c2ccccc2C(=O)O)[nH]1` [Metsulfuron] has a pest or weed control at 8 g/ha ([1]; Brassica napus, 336 h, read-out: Herbicide injury on B. napus FM 202) of 0% and a pest or weed control at 8 g/ha ([2]; Brassica napus, 336 h, read-out: Herbicide injury on B. napus SR002201) of 93%.

With `COCc1cnc(C2=NC(C)(C(C)C)C(=O)N2)c(C(=O)O)c1` (stereo not drawn) [Imazamox] the “Herbicide injury on B. napus FM 202” value ([1]; 40 g a.i./ha, spray at BBCH 12-13 with Mero 1 l/ha, visual scoring 14 days after application, 0%=no damage, 100%=all plants dead) was 0%.

`CCOc1ccccc1OS(=O)(=O)NC(=O)Nc1nc(OC)cc(OC)n1` [Ethoxysulfuron] was tested, and the “Herbicide injury on B. napus FM 202” value ([1]; 60 g a.i./ha, spray at BBCH 12-13 with Mero 1 l/ha, visual scoring 14 days after application, 0%=no damage, 100%=all plants dead) was 0%.

With `COc1cc(OC)nc(NC(=O)NS(=O)(=O)c2cc(CNS(C)(=O)=O)ccc2C(=O)O)n1` [Mesosulfuron] the “Herbicide injury on B. napus FM 202” value [1, 9] was 0% and the “Herbicide injury on B. napus SR002201” value [2, 9] was 90%.

In the case of `COc1cc(OC)nc(NC(=O)NS(=O)(=O)c2cc(NC=O)ccc2C(=O)N(C)C)n1` [Foramsulfuron], the “times less sensitive to the ALS inhibitor herbicide compared to the wild type enzyme” value [4] is reported as “at least 1000 times”, the pest or weed control at 35 g/ha [1, 10] is reported as 0% and the pest or weed control at 35 g/ha [2, 10] is reported as 75%.

With `COc1nc(C)nc(NC(=O)NS(=O)(=O)c2ccccc2Cl)n1` [Chlorsulfuron] the “Herbicide injury on B. napus FM 202” value ([1]; 9 g a.i./ha, spray at BBCH 12-13 with Mero 1 l/ha, visual scoring 14 days after application, 0%=no damage, 100%=all plants dead) was 0%.
